Source: the supplement of paper PMC10307832

Columns and labels:
Assay in all cases: relative viability (nuclei count vs DMSO), 5 days (fraction); higher = more cells survive
[1] = compound: CC(=O)c1c(C)c2cnc(Nc3ccc(N4CCNCC4)cn3)nc2n(C2CCCC2)c1=O [Palbociclib] + Nc1ncn([C@H]2C[C@H](O)[C@@H](CO)O2)c(=O)n1 [Decitabine] (partner 2 µM)
Procedure, shortened: (§1)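 Values are medians from duplicate plates. Each reflects relative viability, defined as the nuclei count of treated wells over that of vehicle wells. Lung cancer cell lines in 1536-well plates were pin-tool dosed one day after seeding with one drug alone or with a fixed anchor-drug dose plus five library-drug doses (not always all listed) in √10 steps, then fixed, stained and imaged at 4× after 5 days.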

[2] = compound: CC(=O)c1c(C)c2cnc(Nc3ccc(N4CCNCC4)cn3)nc2n(C2CCCC2)c1=O [Palbociclib] + CCNC(=O)c1noc(-c2cc(C(C)C)c(O)cc2O)c1-c1ccc(CN2CCOCC2)cc1 [Luminespib] (partner 0.01 µM)
Procedure, shortened: as §1

[3] = compound: CC(=O)c1c(C)c2cnc(Nc3ccc(N4CCNCC4)cn3)nc2n(C2CCCC2)c1=O [Palbociclib] + Cc1nc(Nc2ncc(C(=O)Nc3c(C)cccc3Cl)s2)cc(N2CCN(CCO)CC2)n1 [Dasatinib] (partner 0.075 µM)
Procedure, shortened: as §1

[4] = compound: CC(=O)c1c(C)c2cnc(Nc3ccc(N4CCNCC4)cn3)nc2n(C2CCCC2)c1=O [Palbociclib] + O=C(c1cc(Cc2n[nH]c(=O)c3ccccc23)ccc1F)N1CCN(C(=O)C2CC2)CC1 [Olaparib] (partner 8 µM)
Procedure, shortened: as §1

Cell Line	relative viability ([1]; first compound 0.01 µM)	relative viability ([1]; first compound 0.03162 µM)	relative viability ([1]; first compound 0.1 µM)	relative viability ([1]; first compound 0.3162 µM)	relative viability ([1]; first compound 1 µM)	relative viability ([2]; first compound 0.01 µM)	relative viability ([2]; first compound 0.1 µM)	relative viability ([2]; first compound 0.3162 µM)	relative viability ([2]; first compound 1 µM)	relative viability ([3]; first compound 0.01 µM)	relative viability ([3]; first compound 0.1 µM)	relative viability ([3]; first compound 0.3162 µM)	relative viability ([3]; first compound 1 µM)	relative viability ([4]; first compound 0.01 µM)	relative viability ([4]; first compound 0.03162 µM)	relative viability ([4]; first compound 0.1 µM)	relative viability ([4]; first compound 0.3162 µM)	relative viability ([4]; first compound 1 µM)	relative viability ([3]; first compound 0.03162 µM)	relative viability ([2]; first compound 0.03162 µM)
NCI-H1793	0.559	0.613	0.611	0.46	0.342	0.17	0.243	0.193	0.2	0.409	0.359	0.342	0.221	1.03	0.628	0.832	0.81	0.501	–	–
PC-14	0.329	0.217	0.224	0.27	0.205	0.141	0.151	0.127	0.176	0.324	0.207	0.164	0.115	0.31	0.296	0.311	0.214	0.176	0.223	–
SW 900	0.393	–	0.475	0.478	0.484	0.198	0.163	0.182	0.171	0.641	0.543	0.479	0.46	0.914	–	0.975	0.865	0.725	–	–
HCC-78	0.651	0.629	0.773	0.694	0.429	–	–	–	–	0.348	0.348	0.26	0.215	1.05	0.661	0.695	0.636	0.369	0.361	–
LC-2-ad	0.82	0.781	0.758	0.691	0.756	0.944	0.856	0.8	0.535	0.459	0.541	0.446	0.325	0.744	0.71	0.688	0.642	0.553	–	–
NCI-H1755	0.742	0.744	0.614	0.7	0.635	0.266	0.451	0.479	0.284	0.381	0.371	0.399	0.279	0.875	0.841	0.812	0.788	0.664	0.373	0.297
NCI-H358	0.209	0.203	0.206	0.186	0.143	0.325	0.176	0.308	0.134	0.156	0.101	0.0972	0.0795	0.571	0.486	0.452	0.292	0.136	0.179	–
A549	0.269	–	0.245	0.274	0.302	–	–	–	–	–	–	–	–	0.345	0.0522	0.282	0.3	0.231	–	–
NCI-H1299	–	–	–	–	–	–	–	–	–	–	–	–	–	0.925	0.924	0.886	0.79	0.65	–	–
NCI-H727	0.866	0.964	0.895	0.829	0.669	0.309	0.285	0.352	0.405	0.342	0.299	0.242	0.218	0.738	0.728	0.699	0.728	0.568	0.302	0.293
A-427	0.6	0.581	0.489	0.539	0.519	0.991	0.691	0.74	0.501	0.672	0.561	0.523	0.485	0.737	0.626	0.514	0.514	0.391	0.607	0.809
BEN	0.692	0.521	0.596	0.68	0.422	0.619	0.269	0.205	0.194	0.39	0.229	0.235	0.208	1.01	0.992	0.615	0.945	0.594	0.324	0.225
Calu-6	–	–	–	–	–	–	–	–	–	–	–	–	–	0.612	0.549	0.511	0.528	0.417	–	–
NCI-H596	1.15	0.973	1.05	0.945	1.22	0.91	0.968	0.958	1.04	0.606	0.551	0.599	0.613	0.708	0.809	0.724	0.707	0.68	–	–
NCI-H23	0.28	0.341	0.283	0.362	0.33	0.216	0.219	0.196	0.236	0.835	0.8	0.732	0.541	0.375	0.311	0.325	0.305	0.289	–	0.214
EMC-BAC-2	1.02	0.818	0.869	0.783	0.604	1.19	0.952	0.979	0.848	0.3	0.302	0.32	0.256	0.511	0.48	0.506	0.51	0.448	0.258	1.15
CAL-12T	–	–	–	–	–	0.367	0.463	0.277	0.206	0.486	0.248	0.273	0.22	0.667	0.675	0.577	0.531	0.505	0.383	0.318
IA-LM	–	–	–	–	–	–	–	–	–	–	–	–	–	0.755	0.643	0.548	0.474	0.268	–	–
NCI-H1648	0.651	0.376	0.445	0.511	0.339	–	–	–	–	–	–	–	–	0.679	0.71	0.518	0.587	0.37	–	–
HCC-44	0.944	0.866	0.948	0.873	1	0.933	1.02	1.35	1.11	–	–	–	–	0.945	0.952	1	0.965	1.01	–	1.01
NCI-H1703	–	–	–	–	–	–	–	–	–	–	–	–	–	0.417	0.339	0.293	0.199	0.203	–	–
NCI-H2228	–	–	–	–	–	0.173	0.149	0.126	0.098	0.546	0.418	0.409	0.408	0.724	0.624	0.55	0.64	0.465	0.449	0.182
